Consider 1 molecule from patent publication US20210113505A1, “METHODS OF TREATING HAIR RELATED CONDITIONS” (Nogra Pharma Limited, priority 2012, published 2021).

Entries after “also recorded” stand apart in the source; their conditions may differ.

What all share (format): cell-based
One series concerns keratin K15 expression. Put plainly: K15 quantitative immunohistochemistry in organ-cultured human scalp hair follicles. As to conditions: for Keratin-15 immunoreactivity: all concentrations tested, human anagen VI scalp HF organ culture, vs vehicle. How it is done: (§1) Normal human scalp skin was obtained from 6 women undergoing routine face-lift surgery after informed consent. All experiments were performed according to Helsinki guidelines, with appropriate ethics committee approval.
(§2) Normally pigmented anagen VI hair follicles (HFs) (grey/white HFs were excluded from the study) were microdissected from normal human scalp skin and organ cultured following the Philpott model. Compound A or vehicle was administered once for each change of medium (i.e. every 48 h/72 h).
To investigate keratin K15 expression, the tyramide signal amplification method was used as previously described (Kloepper et al., 2008). Briefly, acetone fixed cryosections were washed three times for 5 min using TNT (Tris-HCL NaCl Tween) buffer (0.1 mol/l Tris-HCl, pH 7.5; containing 0.15 mol/l NaCl and 0.05% Tween 20). Next, horseradish peroxidase was blocked by washing with 3% H2O2 in phosphate-buffered saline (PBS) for 15 min. Preincubation was performed with the incubation of avidin and biotin for 15 min and 5% goat normal serum in TNT for 30 min with washing steps in between. Mouse anti-human K15 (clone LHK15, Chemicon, Billerica, USA) was diluted in TNT and incubated overnight at 4° C. followed by a biotinylated secondary antibody goat anti-mouse (1:200 in TNT) for 45 min at RT. Next, streptavidin horseradish peroxidase (TSA kit; Perkin-Elmer, Boston, Mass., USA) was administered (1:100 in TNT) for 30 min at RT. […] The intensity of the immunostaining was quantified by ImageJ software (National Institutes of Health). The staining intensity of defined reference regions in the HF was measured and compared between control and N Compound A-treated groups. The percentage of K15-positive cells in comparison to the total amount of cells in the ORS was calculated.
Statistical analysis was performed using a two-tailed Student's t-test for unpaired samples. […] In order to avoid data distortion by individual experiments, rigid exclusion criteria were defined that allowed to exclude one individual experiment (out of 5-6) per read-out parameter. […]

A further series relates to K19 expression. As to the kind of experiment: K19 quantitative immunohistochemistry in organ-cultured human scalp hair follicles. The note with it: human scalp HF organ culture; for number of K19-positive cells relative to control: cells in the ORS. How it is done: as §1, §2
A previously described protocol was used to investigate K19 expression (Kloepper et al., 2008). Briefly, acetone-fixed cryosections were pre-treated with goat serum (10% in Tris-buffered saline, Dako). The sections were incubated first with primary antibodies against K19 (mouse anti-human: K19-1:10; overnight, at 4° C.; PROGEN, Heidelberg, Germany;) and then with FITC-labeled goat anti-mouse (1:200 in TBS, for 45 min, RT, Jackson ImmunoResearch) immunoglobulins as secondary antibodies. Counterstaining was performed with DAPI (Boehringer Mannheim, Mannheim, Germany). The intensity of this immunostaining was quantified by ImageJ software (National Institutes of Health). The staining intensity of defined reference regions in the HF was measured and compared between control and Compound A-treated groups. The percentage of K19-positive cells in comparison to the total amount of cells in the ORS was calculated.
Statistical analysis was performed using a two-tailed Student's t-test for unpaired samples. For meta-analysis purposes, a total of six assays (each with HFs from a different female individual) were run. […] In order to avoid data distortion by individual experiments, rigid exclusion criteria were defined that allowed to exclude one individual experiment (out of 5-6) per read-out parameter. Since these exclusion criteria differed for each study parameter, different experiments (i.e. one out of 6, and one out of 5 in the case of keratin 19 analysis) were excluded for each assay parameter. […]

For series [1], the system named is human scalp hair follicles. Put plainly: LDH measurement in supernatant of hair follicle organ culture (cytotoxicity). As to conditions: for LDH activity in the supernatant: 0.1 mM dose, day 6, pooled data. How it is done: (§3) Details regarding tissue specimen origin used in the present example are as described in Example 2 above.
LDH activity in the supernatant can serve as an indicator of cytotoxicity and was measured following the manufacturer's instructions (Cytotoxicity Detection Kit; Roche, Mannheim, Germany). The absorbance of the samples was measured at 490 nm using an ELISA plate-reader.
(§4) To evaluate apoptotic cells in colocalization with a proliferation marker Ki-67, a Ki-67/terminal dUTP nick-end labeling (TUNEL) double-staining method was used. Cryostat sections were fixed in paraformaldehyde and ethanol-acetic acid (2:1) and labeled with a digoxigenin-deoxy-UTP (ApopTag fluorescein in situ apoptosis detection kit; Intergen, Purchase, N.Y.) in the presence of terminal deoxynucleotidyl transferase, followed by incubation with a mouse anti-Ki-67 antiserum (1:20 in PBS overnight at 4 C; Dako, Glostrup, Denmark). TUNEL-positive cells were visualized by an antidigoxigenin fluorescein isothiocyanate-conjugated antibody (ApopTag kit), whereas Ki-67 was detected by a rhodamine-labeled goat antimouse antibody (Jackson ImmunoResearch, West Grove, Pa.). Negative controls were performed by omitting terminal deoxynucleotidyl transferase and the Ki-67 antibody. Counterstaining was performed with 4′,6-diamidino-2-phenylindole (DAPI) (Roche Molecular Biochemicals GmbH, Mannheim, Germany). Quantitative immunohistomorphometry was performed; Ki-67-, TUNEL-, or DAPI-positive cells were counted in a previously defined reference region of the HF matrix, and the percentage of Ki-67/TUNEL-positive cells were determined. Statistical analysis was performed using a two-tailed Student's t-test for unpaired samples. For meta-analysis purposes, a total of six assays (each with HFs from a different female individual) were run. In order to avoid data distortion by individual experiments, rigid exclusion criteria were defined that allowed to exclude one individual experiment (out of 5-6) per read-out parameter. […]

Series [2] concerns human scalp hair follicles. Put plainly: Hair shaft elongation of organ-cultured hair follicles. How it is done:
as §3
Hair shaft length measurements of HFs were performed on individual HFs using a Zeiss inverted binocular microscope with an eyepiece measuring graticule.
as §4, with “parameter. Since these exclusion criteria differed for each study parameter, different experiments (i.e. one out of 6) were excluded for each assay parameter.” for “parameter.”

Series [3] relates to human scalp hair follicles. Put plainly: HF cycle staging (anagen/catagen) of organ-cultured hair follicles. As to conditions: all concentrations, pooled data. How it is done: as §3
HF cycle staging was carried out according to previously defined morphological criteria, and the percentage of HFs in anagen and early, mid, or late catagen was determined.
To evaluate apoptotic cells in colocalization with a proliferation marker Ki-67, a Ki-67/terminal dUTP nick-end labeling (TUNEL) double-staining method was used. […] TUNEL-positive cells were visualized by an antidigoxigenin fluorescein isothiocyanate-conjugated antibody (ApopTag kit), whereas Ki-67 was detected by a rhodamine-labeled goat antimouse antibody (Jackson ImmunoResearch, West Grove, Pa.). […] Quantitative immunohistomorphometry was performed; Ki-67-, TUNEL-, or DAPI-positive cells were counted in a previously defined reference region of the HF matrix, and the percentage of Ki-67/TUNEL-positive cells were determined. […] In order to avoid data distortion by individual experiments, rigid exclusion criteria were defined that allowed to exclude one individual experiment (out of 5-6) per read-out parameter. […]

Setting [4] is: listed as N-acetyl-(R)-(−)-3-(4-aminophenyl)-2-methoxypropionic acid.

On to `CO[C@H](Cc1ccc(NC(C)=O)cc1)C(=O)O` [Compound A, N-acetyl-(R)-(−)-3-(4-aminophenyl)-2-methoxypropionic acid], for which the Keratin-15 immunoreactivity result is given as “strongly stimulated” in the series on keratin K15 expression and “stimulation” with keratin K15 expression (setting [4]). In addition, in the series with keratin K15 expression (human scalp HF organ culture, cells in the ORS), the “number of K15-positive cells” value was “did not increase”. The “Keratin 19 immunoreactivity” value in the series on K19 expression (all concentrations tested, vs vehicle) was “strongly stimulated”. For the same molecule, the results for the “number of K19-positive cells relative to control” value in the series on K19 expression and in the series on K19 expression (setting [4]) were “stimulating effect” and “increased numbers”, respectively. The “LDH activity in the supernatant” value in series [1] is listed as “slight increase”; in series [1] (setting [4]) it was “increase”. In series [1] (under assay conditions, from LDH activity), the “Compound-associated HF toxicity” value is given as “very low, if any”. Also, the hair shaft elongation entry is recorded as “slightly, but significantly, inhibited; also recorded: inhibits” in series [2] (high dose (1 mM), day 6, pooled data); “inhibition” in series [2] (high dose (1 mM), day 6, pooled data, listed as N-acetyl-(R)-(−)-3-(4-aminophenyl)-2-methoxypropionic acid); “did not have an effect” in series [2] (lower concentrations (below 1 mM)). The “hair cycle effect (catagen induction)” value in series [3] is on record as “induced catagen; also recorded: catagen-inducing effect”; in series [3] (setting [4]), “trend toward catagen”.
